Results reported in the NIST ThermoML archive (doi:10.1021/acs.jced.6b00751).
Numbers after ± are expanded uncertainties.

Settings: 101.33 kPa, Liquid, Vibrating tube method

mass density (298.15 K) [kg/m3]	mass density (313.15 K) [kg/m3]	mass density (333.15 K) [kg/m3]	mass density (353.15 K) [kg/m3]	SMILES
1234.1 ± 18	1219.1 ± 18	1199.1 ± 27	1170.4 ± 39	CCOS(=O)(=O)[O-].CCn1cc[n+](C)c1 [1-ethyl-3-methylimidazolium ethyl sulfate]
1369.9 ± 18	1350.4 ± 26	1325.2 ± 21	1288.4 ± 39	CCCCn1cc[n+](C)c1.F[P-](F)(F)(F)(F)F [1-butyl-3-methylimidazolium hexafluorophosphate]
